Entries after “also recorded” stand apart in the source; their conditions may differ. Where a name gives a salt, the structure may show the parent alone. Read-outs that look alike come from different tables or passages of the source.
Key:
Asu-ACR-16 [1] = biological target: T1, Asu-ACR-16 (Ascaris suum (Pig roundworm) (Ascaris lumbricoides), UniProt F1KYJ9); experiment: cell-based; format: cell-based; settings: for maximum response (Imax): normalized to peak current of 100 μM ACh; for Emax: read-out: maximum response (Imax)
T1 sequence (F1KYJ9 1-504): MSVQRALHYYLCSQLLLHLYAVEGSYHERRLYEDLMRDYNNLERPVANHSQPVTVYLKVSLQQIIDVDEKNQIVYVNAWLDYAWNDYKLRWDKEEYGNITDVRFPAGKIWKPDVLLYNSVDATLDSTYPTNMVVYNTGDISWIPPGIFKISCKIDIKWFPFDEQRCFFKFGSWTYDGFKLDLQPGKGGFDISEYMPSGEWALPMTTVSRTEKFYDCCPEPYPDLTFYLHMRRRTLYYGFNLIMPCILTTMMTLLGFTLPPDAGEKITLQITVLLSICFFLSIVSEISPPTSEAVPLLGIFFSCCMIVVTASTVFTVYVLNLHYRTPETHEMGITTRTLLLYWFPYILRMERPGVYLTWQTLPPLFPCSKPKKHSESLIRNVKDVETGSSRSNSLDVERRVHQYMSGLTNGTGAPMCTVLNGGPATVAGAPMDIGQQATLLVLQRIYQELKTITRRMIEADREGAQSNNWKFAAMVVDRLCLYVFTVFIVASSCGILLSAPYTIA
Procedure: Full-length Asu-acr-16 cRNA and ancillary gene Asu-ric-3 cRNA (UniProtKB Accession No. F1L1D9) were prepared as previously described (Zheng et al. (2016), supra). A cRNA mixture of 25 ng Asu-acr-16 and 5 ng Asu-ric-3 cRNA in 50 nL RNAse-free water was injected into de-folliculated Xenopus laevis oocytes (Ecocyte Bioscience, Austin, Tex., USA). The injected oocytes were incubated in an incubation solution (100 mM NaCl, 2 mM KCl, 1.8 mM CaCl2.2H2O, 1 mM MgCl2.6H20, 5 mM HEPES, 2.5 mM Na-pyruvate, 100 U/mL penicillin, and 100 μg/mL streptomycin, pH 7.5) at 19° C. for 4-8 days, after which 100 μM BAPTA-AM was added three hours before recording.
Two-electrode voltage clamp electrophysiology was used to determine agonist concentration-current-response plots to estimate the potencies (EC50s) of the agonists. The oocytes were kept in a recording solution (100 mM NaCl, 2.5 mM KCl, 1 mM CaCl2.2H2O, and 5 mM HEPES, pH 7.3) and clamped to −60 mV during recording.
Inward current signals in the oocytes were induced by the addition of chemicals that acted as agonists opening the nicotinic ion-channel receptors. […] An Axoclamp 2B amplifier (Molecular Devices, Sunnyvale, Calif.) was used to record the currents that were acquired with Clampex 9.2 software (Molecular Devices) and analyzed using GraphPad Prism 5.0 (Graphpad Software, Inc., La Jolla, Calif.).
Recording solution was then used to wash out the drug from the oocyte for 3 min prior to application of the next chemical perfusion.
Nicotine derivatives that elicited inward currents at 100 μM were classified as agonists. Increasing concentrations of each nicotine derivative were applied for 10 sec with 3-min wash intervals to determine the dose-response relationship of each agonist. […] Peak responses were recorded and normalized. […] The EC50 and Imax of each agonist were compared using the unpaired student's t-test. P<0.05 was used to evaluate the statistical difference.

Asu-ACR-16 [2] = biological target: T1, Asu-ACR-16; experiment: Two-electrode voltage clamp inhibition of the ACh response of Asu-ACR-16 expressed in Xenopus laevis oocytes; format: cell-based
[3] = agonist dose-response, mean±S.E.M., N=5
[4] = agonist, currents normalized to 100 μM ACh, oocytes clamped to −60 mV, mean±S.E.M., N=5
[5] = inward currents at 100 μM classify as agonist
[6] = inhibition of ACh response, N=5

Structure (SMILES): CC(=O)OCC[N+](C)(C)C.[Cl-] [ACh, acetylcholine chloride]
- Hill slope (nH) (Asu-ACR-16 [1]; [3]): 2.93 ± 0.13

Structure (SMILES): C[N+]1(C)CCC[C@H]1c1cccnc1.[I-] [(S)-1′-methyl-nicotinium, (S)-1′-methylnicotinium iodide]
- Hill slope (nH) (Asu-ACR-16 [1]; [3]): 3.52 ± 0.26
- maximum response (Imax) (Asu-ACR-16 [1]; mean±S.E.M., N=5): 93.38 ± 5.25%

Structure (SMILES): CN1CCC[C@H]1c1cncc(Br)c1 [(S)-5-bromo-nicotine, (S)-5-bromonicotine]
- Hill slope (nH) (Asu-ACR-16 [1]; [3]): 2.46 ± 0.21
- EC50 (Asu-ACR-16 [1]; [4]): 2040 ± 120 nM
- Emax (Asu-ACR-16 [1]): 69.7 ± 3.28%

Structure (SMILES): Cc1ccc(C2CCCN2C)cn1 (stereo not shown) [6-methyl-nicotine, 6-methylnicotine]
- Hill slope (nH) (Asu-ACR-16 [1]; [3]): 3.25 ± 0.25
- Emax (Asu-ACR-16 [1]): 69.8 ± 1.56%

Structure (SMILES): NC(=O)c1ccc(N)nc1 [6-AN, 6-aminonicotinamide]
- Hill slope (nH) (Asu-ACR-16 [1]; [3]): 10.10 ± 0.15
- agonist activity (in words) (Asu-ACR-16 [1]; [5]): little agonist activity
- Emax (Asu-ACR-16 [1]): 6.29 ± 0.62%
- IC50 (Asu-ACR-16 [2]): 2000 ± 410 nM
- inhibition of ACh response (in words) (Asu-ACR-16 [2]; 100 μM derivative co-applied with 100 μM ACh): most potent inhibitor
- mode of antagonism (in words) (Asu-ACR-16 [2]; ACh dose-response in presence of 1 μM 6-AN, concentration- and voltage-dependent inhibition): non-competitive antagonist
- Imax (Asu-ACR-16 [2]; [6]): 94.88±1.49%
- nH (Asu-ACR-16 [2]; [6]): 1.02±0.05

Structure (SMILES): CN1C(=O)CC[C@H]1c1cccnc1 [(S)-cotinine, (−)-cotinine]
- agonist activity (in words) (Asu-ACR-16 [1]; [5]): did not act as agonists

Structure (SMILES): CN1CCC[C@H]1c1cncc(C=O)c1 [(S)-nicotine-5-carboxaldehyde]
- Hill slope (nH) (Asu-ACR-16 [1]; [3]): 8.61 ± 4.04
- EC50 (Asu-ACR-16 [1]; [4]): 11500 ± 630 nM
- maximum response (Imax) (Asu-ACR-16 [1]; mean±S.E.M., N=5): 62.20 ± 6.80%

Structure (SMILES): CCN1CCCC1c1cccnc1 (stereo not shown) [homonicotine]
- Hill slope (nH) (Asu-ACR-16 [1]; [3]): 6.78 ± 2.50
- maximum response (Imax) (Asu-ACR-16 [1]; mean±S.E.M., N=5): 22.01 ± 1.39%

Structure (SMILES): C#Cc1cncc([C@@H]2CCCCN2)c1 [(S)-5-ethynyl-anabasine]
- Hill slope (nH) (Asu-ACR-16 [1]; [3]): 1.81 ± 0.24
- maximum response (Imax) (Asu-ACR-16 [1]; mean±S.E.M., N=5): 79.33 ± 3.75%
- EC50 lower (more potent) than (S)-nicotine (Asu-ACR-16 [1]; ratio of EC50 values): 44 times

Structure (SMILES): c1cncc([C@@H]2CCCN2)c1 [nornicotine, (+)-nornicotine]
- Hill slope (nH) (Asu-ACR-16 [1]; [3]): 3.25 ± 0.49
- Emax (Asu-ACR-16 [1]): 62.6 ± 3.42%

Structure (SMILES): Brc1cncc([C@@H]2CCCCN2)c1 [(S)-5-bromo-anabasine, (S)-5-bromoanabasine]
- Hill slope (nH) (Asu-ACR-16 [1]; [3]): 4.19 ± 1.58
- maximum response (Imax) (Asu-ACR-16 [1]; mean±S.E.M., N=5): 80.69 ± 2.87%

Structure (SMILES): CN1CCC[C@H]1c1cccnc1 [(S)-nicotine, (−)-nicotine hydrogen tartrate salt]
- EC50 (Asu-ACR-16 [1]): 6210 ± 560 nM
- Emax (Asu-ACR-16 [1]): 82.4 ± 2.52%

Structure (SMILES): CN1CCCCC1c1cccnc1 (stereo not shown) [N-methyl-anabasine, N-methyl anabasine]
- agonist activity (in words) (Asu-ACR-16 [1]; [5]): inactive; also recorded: did not act as agonists

Structure (SMILES): C#Cc1cncc([C@@H]2CCCN2C)c1 [(S)-SIB 1508Y, SIB 1508Y maleate]
- Hill slope (nH) (Asu-ACR-16 [1]; [3]): 0.94 ± 0.04
- EC50 (Asu-ACR-16 [1]; [4]): 370 ± 100 nM
- maximum response (Imax) (Asu-ACR-16 [1]; mean±S.E.M., N=5): 100.1 ± 4.36%

Structure (SMILES): CN1CCCC1c1cccnc1.O=C(O)C(O)C(O)C(=O)O (single isomer, unassigned; (-)) [(S)-nicotine, (−)-nicotine hydrogen tartrate salt]
- Hill slope (nH) (Asu-ACR-16 [1]): 3.39 ± 0.36
- agonist activity (in words) (Asu-ACR-16 [1]): potent agonist

Structure (SMILES): c1cncc([C@@H]2CCCCN2)c1 [(S)-anabasine]
- Hill slope (nH) (Asu-ACR-16 [1]; [3]): 2.26 ± 0.20
- maximum response (Imax) (Asu-ACR-16 [1]; mean±S.E.M., N=5): 84.82 ± 4.20%

Structure (SMILES): CN1CCC[C@H]1c1ccc[n+](C)c1.[I-] [(S)-1-methyl-nicotinium, (S)-1-methylnicotinium iodide]
- agonist activity (in words) (Asu-ACR-16 [1]; [5]): did not act as agonists

Structure (SMILES): Cc1cncc(C2CCCN2C)c1 (stereo not shown) [5-methyl-nicotine, 5-methylnicotine]
- Hill slope (nH) (Asu-ACR-16 [1]; [3]): 2.09 ± 0.14
- EC50 (Asu-ACR-16 [1]; [4]): 990 ± 170 nM
- Emax (Asu-ACR-16 [1]): 76 ± 1.22%
